Biological target: T1, glucocerebrosidase (Gcase) (Homo sapiens, UniProt P04062)
T1 construct: micellar solution containing 10 nM GCase and 100 nM saposin C
T1 sequence (P04062 40-536): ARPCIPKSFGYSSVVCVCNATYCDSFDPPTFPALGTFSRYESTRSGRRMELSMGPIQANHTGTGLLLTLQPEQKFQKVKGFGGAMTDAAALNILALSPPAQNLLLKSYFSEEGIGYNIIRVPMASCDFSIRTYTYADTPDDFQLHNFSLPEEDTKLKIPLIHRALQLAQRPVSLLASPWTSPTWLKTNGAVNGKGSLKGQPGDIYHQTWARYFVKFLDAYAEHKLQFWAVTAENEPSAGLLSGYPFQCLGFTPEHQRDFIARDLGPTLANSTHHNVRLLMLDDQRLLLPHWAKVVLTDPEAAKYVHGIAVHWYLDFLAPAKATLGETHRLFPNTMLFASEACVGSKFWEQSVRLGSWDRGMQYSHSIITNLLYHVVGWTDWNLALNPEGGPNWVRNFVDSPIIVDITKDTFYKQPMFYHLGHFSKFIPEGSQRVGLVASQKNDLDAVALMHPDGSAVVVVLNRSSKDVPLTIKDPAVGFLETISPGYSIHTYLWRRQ
Experiment: Glucocerebrosidase (Gcase) activation assay with 4-methylumbelliferyl-beta-D-glucopyranoside substrate, saposin C and phosphatidylserine/triton micelles, fluorescence readout
Type: biochemical
Summary of the method: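 Fluorescence (ex 365 nm, em 440 nm) read after glycine pH 12.5 stop of a 15 min room-temperature reaction. GCase 10 nM plus saposin C 100 nM in PS/triton micelles, pH 4.7, preincubated 30 min with compound; substrate solution held 2 mM 4-MU-beta-glucoside. Screened at 1.0 and 0.1 μM; 8-point, 3-fold curves from 5 μM top.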

Structure (SMILES) | Percent Gcase Activation, 0.1 μM Test Compound (0.1 μM test compound) | Percent Gcase Activation, 1 μM Test Compound (1 μM test compound) | Percent Gcase Activation, 0.1 μM Test Compound (test compound at 0.1 μM) | Percent Gcase Activation, 1 μM Test Compound (test compound at 1.0 μM) | other results
Cc1cc(N2CC(C)(C)NC2=O)nc2c(C(=O)NC(C3CC3)C(F)(F)F)cnn12 (stereo not drawn) [III-319] | ** (Gcase activation in the range of 10% up to 20%) | +++ (Gcase activation greater than 60%) |  |  | 
Cc1cc(-c2ccc(F)cc2)nc2c(C(=O)N[C@H](C)C3CC3)cnn12 [III-86] |  |  | ** (Gcase activation in the range of 10% up to 20%) | +++ (Gcase activation greater than 60%) | 
CO[C@H]1CC[C@H]([C@@H](C)NC(=O)c2cnn3c(C)cc(C)nc23)CC1 [III-403] | * (less than 10% Gcase activation) | ++ (Gcase activation in the range of 30% up to 60%) |  |  | 
Cc1cc(-c2ccc(F)c(C#N)c2)nc2c(C(=O)NC(C)C(F)(F)F)cnn12 (stereo not drawn) [III-159] |  |  | ** (Gcase activation in the range of 10% up to 20%) | +++ (Gcase activation greater than 60%) | 
Cc1cc(-c2ccc(F)c(C(N)=O)c2)nc2c(C(=O)N[C@@H](C)C3CC3)cnn12 [III-160] |  |  | ** (Gcase activation in the range of 10% up to 20%) | +++ (Gcase activation greater than 60%) | 
Cc1cc(N2CCN(C(C)C)C2=O)nc2c(C(=O)N[C@@H](C3CC3)C(F)(F)F)cnn12 [III-326] | * (less than 10% Gcase activation) | +++ (Gcase activation greater than 60%) |  |  | 
Cc1cc(C2=CC(C)(C)CCO2)nc2c(C(=O)NC(C3CC3)C(F)(F)F)cnn12 (stereo not drawn) [III-322] | *** (greater than 20% Gcase activation) | +++ (Gcase activation greater than 60%) |  |  | 
Cc1nc(-c2cc(C)n3ncc(C(=O)N[C@H](C4CC4)C(F)(F)F)c3n2)oc1C [III-331] | *** (greater than 20% Gcase activation) | +++ (Gcase activation greater than 60%) |  |  | 
CCc1cc(-c2ccccn2)n2ncc(C(=O)NC(C)C3CC3)c2n1 (stereo not drawn) [III-48] |  |  |  |  | Percent Gcase Activation, 0.1 μM Test Compound (0.1 μM test compound, Table 3A): * (less than 10% Gcase activation); Percent Gcase Activation, 1 μM Test Compound (1 μM test compound, Table 3A): ++ (Gcase activation in the range of 30% up to 60%)
Cc1cc(-c2cccnc2C(F)(F)F)nc2c(C(=O)N[C@H](C3CC3)C(F)(F)F)cnn12 [III-355] | *** (greater than 20% Gcase activation) | +++ (Gcase activation greater than 60%) |  |  | 
Cc1cc(-c2sccc2C#N)nc2c(C(=O)N[C@@H](C)C3CC3)cnn12 [III-301] | *** (greater than 20% Gcase activation) | +++ (Gcase activation greater than 60%) |  |  | 
Cc1cc(-c2cccc(OC3CC3)c2)nc2c(C(=O)NC(C)C(F)(F)F)cnn12 (stereo not drawn) [III-77] |  |  |  |  | Percent Gcase Activation, 0.1 μM Test Compound (0.1 μM test compound, Table 3A): *** (greater than 20% Gcase activation); Percent Gcase Activation, 1 μM Test Compound (1 μM test compound, Table 3A): +++ (Gcase activation greater than 60%)
COc1cc(F)ccc1-c1cc(C)n2ncc(C(=O)NC(C3CC3)C(F)(F)F)c2n1 (stereo not drawn) [III-149] |  |  | *** (greater than 20% Gcase activation) | +++ (Gcase activation greater than 60%) | 
Cc1cc(-c2ccc3ocnc3c2)nc2c(C(=O)N[C@H](C3CC3)C(F)(F)F)cnn12 [III-109] |  |  | *** (greater than 20% Gcase activation) | +++ (Gcase activation greater than 60%) | 
Cc1cc(N2CC(C)(C)OC2=O)nc2c(C(=O)N[C@H](C3CC3)C(F)(F)F)cnn12 [III-358] | * (less than 10% Gcase activation) | ++ (Gcase activation in the range of 30% up to 60%) |  |  | 
Cc1cc(-c2cncc(F)c2)nc2c(C(=O)N[C@@H](C3CC3)C(F)(F)F)cnn12 [III-127] |  |  | *** (greater than 20% Gcase activation) | +++ (Gcase activation greater than 60%) | 
Cc1cc(-c2cccnc2F)nc2c(C(=O)N[C@H](C3CC3)C(F)(F)F)cnn12 [III-114] |  |  | *** (greater than 20% Gcase activation) | +++ (Gcase activation greater than 60%) | 
Cc1ncc(-c2cc(C)n3ncc(C(=O)N[C@@H](C4CC4)C(F)(F)F)c3n2)cc1F [III-381] | *** (greater than 20% Gcase activation) | +++ (Gcase activation greater than 60%) |  |  | 
Cc1cc(-c2ncccc2Cl)nc2c(C(=O)NC(C3CC3)C(F)(F)F)cnn12 (stereo not drawn) [III-206] |  |  | *** (greater than 20% Gcase activation) | +++ (Gcase activation greater than 60%) | 
COc1ccc(F)cc1-c1cc(C)n2ncc(C(=O)N[C@@H](C)C(F)(F)F)c2n1 [III-196] |  |  | *** (greater than 20% Gcase activation) | +++ (Gcase activation greater than 60%) | 
Cc1cc(C)n2ncc(C(=O)N[C@H](C3CC3)C(F)(F)F)c2n1 [III-10] |  |  |  |  | Percent Gcase Activation, 0.1 μM Test Compound (0.1 μM test compound, Table 3A): ** (Gcase activation in the range of 10% up to 20%); Percent Gcase Activation, 1 μM Test Compound (1 μM test compound, Table 3A): +++ (Gcase activation greater than 60%)
Cc1cc(N2CCC(F)(F)CC2)nc2c(C(=O)NC(C)C(F)(F)F)cnn12 (stereo not drawn) [III-181] |  |  | * (less than 10% Gcase activation) | +++ (Gcase activation greater than 60%) | 
Cc1cc(-c2cccc(-c3ncco3)c2)nc2c(C(=O)NC(C3CC3)C(F)(F)F)cnn12 (stereo not drawn) [III-416] | *** (greater than 20% Gcase activation) | +++ (Gcase activation greater than 60%) |  |  | 
CCC(NC(=O)c1cnn2c(C)cc(-c3cccnc3)nc12)C(F)(F)F (stereo not drawn) [III-42] |  |  |  |  | Percent Gcase Activation, 0.1 μM Test Compound (0.1 μM test compound, Table 3A): * (less than 10% Gcase activation); Percent Gcase Activation, 1 μM Test Compound (1 μM test compound, Table 3A): +++ (Gcase activation greater than 60%)
Cc1ncc(F)cc1-c1cc(C)n2ncc(C(=O)N[C@H](C3CC3)C(F)(F)F)c2n1 [III-378] | ** (Gcase activation in the range of 10% up to 20%) | +++ (Gcase activation greater than 60%) |  |  | 
COc1c(C#N)cccc1-c1cc(C)n2ncc(C(=O)NC(C)C(F)(F)F)c2n1 (stereo not drawn) [III-142] |  |  | * (less than 10% Gcase activation) | + (less than 30% Gcase activation) | 
Cc1cc(-c2ccns2)nc2c(C(=O)NC(C3CC3)C(F)(F)F)cnn12 (stereo not drawn) [III-411] | *** (greater than 20% Gcase activation) | +++ (Gcase activation greater than 60%) |  |  | 
Cc1cc(-c2ccccn2)nc2c(C(=O)NC(C)(C)C3CC3)cnn12 [III-16] |  |  |  |  | Percent Gcase Activation, 0.1 μM Test Compound (0.1 μM test compound, Table 3A): ** (Gcase activation in the range of 10% up to 20%); Percent Gcase Activation, 1 μM Test Compound (1 μM test compound, Table 3A): +++ (Gcase activation greater than 60%)
Cc1cnoc1-c1cc(C)n2ncc(C(=O)N[C@H](C3CC3)C(F)(F)F)c2n1 [III-344] | *** (greater than 20% Gcase activation) | +++ (Gcase activation greater than 60%) |  |  | 
Cc1cc(-c2ccc(F)cc2)n2ncc(C(=O)N[C@@H](C)C3CC3)c2n1 [III-8] |  |  |  |  | Percent Gcase Activation, 0.1 μM Test Compound (0.1 μM test compound, Table 3A): * (less than 10% Gcase activation); Percent Gcase Activation, 1 μM Test Compound (1 μM test compound, Table 3A): + (less than 30% Gcase activation)
